{"source": "ChEMBL document CHEMBL5137004", "about": "“An overview on the synthetic urease inhibitors with structure-activity relationship and molecular docking” (Eur J Med Chem, 2022)"}
{"target": "T1, Urease (Canavalia ensiformis, UniProt P07374)", "T1 sequence (P07374 whole entry)": "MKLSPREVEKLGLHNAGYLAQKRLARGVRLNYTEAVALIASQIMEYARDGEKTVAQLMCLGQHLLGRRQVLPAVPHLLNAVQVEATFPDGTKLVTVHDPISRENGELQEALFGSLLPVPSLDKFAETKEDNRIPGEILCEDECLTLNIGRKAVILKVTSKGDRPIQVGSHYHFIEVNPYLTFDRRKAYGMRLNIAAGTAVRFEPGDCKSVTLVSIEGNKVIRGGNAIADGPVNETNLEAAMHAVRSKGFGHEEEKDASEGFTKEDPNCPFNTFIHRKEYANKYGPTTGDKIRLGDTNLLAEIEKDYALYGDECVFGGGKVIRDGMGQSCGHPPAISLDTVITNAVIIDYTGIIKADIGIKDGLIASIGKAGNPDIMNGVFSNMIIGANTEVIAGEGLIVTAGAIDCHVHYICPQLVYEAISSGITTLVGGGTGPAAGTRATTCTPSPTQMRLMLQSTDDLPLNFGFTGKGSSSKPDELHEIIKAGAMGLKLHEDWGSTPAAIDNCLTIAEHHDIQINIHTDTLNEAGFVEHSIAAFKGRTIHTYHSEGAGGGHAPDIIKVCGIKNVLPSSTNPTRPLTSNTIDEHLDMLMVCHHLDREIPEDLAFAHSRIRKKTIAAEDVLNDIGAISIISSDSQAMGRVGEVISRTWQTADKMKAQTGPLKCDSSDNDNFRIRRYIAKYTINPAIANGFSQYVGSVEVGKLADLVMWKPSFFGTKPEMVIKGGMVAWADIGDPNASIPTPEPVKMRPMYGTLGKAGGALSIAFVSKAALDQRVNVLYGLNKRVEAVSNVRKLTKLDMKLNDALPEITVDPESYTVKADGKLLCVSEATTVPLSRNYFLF", "test": "Inhibition of jack bean urease assessed as reduction on ammonia production using urea as substrate incubated for 15 mins by indophenol reagent based microplate reader assay", "conditions": "not given", "units": {"IC50": "µM"}}
{"molecule": "Oc1ccc(C2Oc3cc(O)cc(O)c3/C(=N/C(=S)Nc3ccccc3)C2O)c(O)c1", "note": "(configuration not stated)", "IC50": 7.37}
{"molecule": "COc1ccc(-c2c/c(=N\\C(=O)Oc3ccccc3)c3c(O)cc(O[C@@H]4O[C@H](CO)[C@@H](O)[C@H](O)[C@H]4O[C@@H]4O[C@@H](C)[C@H](O)[C@@H](O)[C@H]4O)cc3o2)cc1O", "IC50": 15.6}
{"molecule": "COc1ccc2cc([C@@H](C)c3nc4cc(Cl)ccc4[nH]3)ccc2c1", "IC50": 36}
{"molecule": "C[C@H](O)c1nc2ccccc2[nH]1", "IC50": 22}
{"molecule": "NS(=O)(=O)c1ccc(NC=C2C(=O)NC(=S)NC2=O)cc1", "IC50": 3.76}
{"molecule": "COc1ccc(-c2c/c(=N\\C(=S)Nc3cccc([N+](=O)[O-])c3)c3c(O)cc(O[C@@H]4O[C@H](CO)[C@@H](O)[C@H](O)[C@H]4O[C@@H]4O[C@@H](C)[C@H](O)[C@@H](O)[C@H]4O)cc3o2)cc1O", "IC50": 12.6}
{"target": "Urease subunit alpha/Urease subunit beta (Helicobacter pylori (strain ATCC 700392 / 26695) (Campylobacterpylori), UniProt P69996)", "sequence (P69996 whole entry)": "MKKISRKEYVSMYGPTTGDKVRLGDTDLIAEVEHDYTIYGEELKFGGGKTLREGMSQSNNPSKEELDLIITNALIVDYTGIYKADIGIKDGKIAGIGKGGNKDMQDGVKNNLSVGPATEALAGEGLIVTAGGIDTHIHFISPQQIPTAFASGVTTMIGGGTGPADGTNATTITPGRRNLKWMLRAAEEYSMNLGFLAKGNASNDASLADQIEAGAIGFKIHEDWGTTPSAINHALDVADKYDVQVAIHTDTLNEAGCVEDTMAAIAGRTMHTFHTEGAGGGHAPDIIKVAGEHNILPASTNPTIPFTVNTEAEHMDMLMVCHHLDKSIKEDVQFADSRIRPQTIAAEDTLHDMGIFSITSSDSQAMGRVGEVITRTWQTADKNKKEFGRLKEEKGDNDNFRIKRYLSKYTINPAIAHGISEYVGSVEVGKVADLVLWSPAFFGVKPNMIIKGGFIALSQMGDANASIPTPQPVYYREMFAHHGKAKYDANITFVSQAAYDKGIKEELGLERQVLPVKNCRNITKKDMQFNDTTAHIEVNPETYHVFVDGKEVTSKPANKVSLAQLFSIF", "sequence (P14916 whole entry, further chain)": "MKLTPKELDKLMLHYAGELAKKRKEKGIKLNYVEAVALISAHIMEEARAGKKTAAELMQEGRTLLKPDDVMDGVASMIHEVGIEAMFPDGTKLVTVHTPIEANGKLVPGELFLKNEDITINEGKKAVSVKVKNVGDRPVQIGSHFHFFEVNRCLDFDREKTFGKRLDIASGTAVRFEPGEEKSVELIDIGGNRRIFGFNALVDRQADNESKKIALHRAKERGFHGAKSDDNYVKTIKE", "test": "Inhibition of Helicobacter pylori urease", "type": "protein-complex assay", "conditions": "not given", "units": {"IC50": "µM"}}
{"molecule": "O=C(COc1ccc(CC2C(=O)NC(=O)NC2=O)cc1)Nc1cccc(Cl)c1Cl", "IC50": 0.69}
{"molecule": "NC(N)=S", "note": "[THIOUREA]", "IC50": 23}
{"molecule": "NC(=O)NO", "note": "[HYDROXYUREA]", "IC50": 100}
{"system": "not listed separately", "test": "Antioxidant activity assessed as DPPH radical scavenging activity incubated for 30 mins", "type": "functional", "conditions": "not given", "units": {"IC50": "µM"}}
{"molecule": "COc1ccc(-c2c/c(=N\\C(=O)Oc3ccccc3)c3c(O)cc(O[C@@H]4O[C@H](CO)[C@@H](O)[C@H](O)[C@H]4O[C@@H]4O[C@@H](C)[C@H](O)[C@@H](O)[C@H]4O)cc3o2)cc1O", "IC50": 5.64}
{"molecule": "O=C(/C=C/c1ccc(O)c(O)c1)O[C@@H]1C[C@](O)(C(=O)Nc2ccc(-c3ccc(Cl)cc3[N+](=O)[O-])cc2)CC(O)C1O", "note": "(some centres not stated)", "IC50": 5.1}
{"molecule": "COc1ccc(-c2c/c(=N\\C(=S)Nc3cccc([N+](=O)[O-])c3)c3c(O)cc(O[C@@H]4O[C@H](CO)[C@@H](O)[C@H](O)[C@H]4O[C@@H]4O[C@@H](C)[C@H](O)[C@@H](O)[C@H]4O)cc3o2)cc1O", "IC50": 5.2}
{"target": "T1, Urease", "test": "Inhibition of jack bean urease assessed as reduction on ammonia production using urea as substrate incubated for 30 mins by indophenol method", "conditions": "not given", "units": {"IC50": "µM"}}
{"molecule": "NC(N)=S", "note": "[THIOUREA]", "IC50": 18.2}
{"molecule": "CCCCCCCCCCCCCC(=O)NC(=S)Nc1cccc(Cl)c1", "IC50": 0.0391}
{"target": "T1, Urease", "test": "Inhibition of jack bean urease", "conditions": "not given", "units": {"IC50": "µM"}}
{"molecule": "CCc1nc2cc([N+](=O)[O-])ccc2n1S(=O)(=O)c1ccc(C)cc1", "IC50": 31.1}
{"molecule": "CCOc1ccc(NC(=S)N(CC(O)COc2ccc(CC(N)=O)cc2)C(C)C)cc1", "note": "(configuration not stated)", "IC50": 11.7}
{"molecule": "CCNC1NN=C(Cn2c(Cc3ccc(F)cc3)nc3ccccc3c2=O)S1", "note": "(configuration not stated)", "IC50": 4.73}
{"molecule": "C/C(=N\\NC(=S)Nc1cccc([N+](=O)[O-])c1)c1cc2ccccc2o1", "IC50": 0.077}
{"molecule": "O=C(/C=C/c1ccc(O)c(O)c1)O[C@@H]1C[C@](O)(C(=O)Nc2ccc(-c3ccc(Cl)cc3[N+](=O)[O-])cc2)CC(O)C1O", "note": "(some centres not stated)", "IC50": 11}
{"molecule": "COc1cc(C(=O)c2c(O)c3ccccc3oc2=O)cc(OC)c1OC", "IC50": 11.3}
{"molecule": "Cc1ncc([N+](=O)[O-])n1Cc1cn(Cc2ccc(F)cc2)nn1", "IC50": 1.97}
{"molecule": "NNC(=O)c1ccc(C(=O)Cn2nc(-c3ccccc3O)nc2-c2ccccc2O)cc1", "IC50": 3.25}
{"molecule": "CCNc1cc2c(cc1C)C1(c3cc(C)c(NCC)cc3O2)c2ccccc2C(=O)N1NC(=O)c1ccccc1", "IC50": 0.111}
{"molecule": "O=C1O[C@H]([C@@H](O)CO)C(O)=C1O", "note": "[ASCORBIC ACID]", "IC50": 8.59}
{"molecule": "O=C(Cc1nnn[nH]1)Cn1nc(-c2ccccc2O)nc1-c1ccccc1O", "IC50": 1.27}
{"molecule": "Nn1c(-c2ccc(Br)cc2)n[nH]c1=S", "IC50": 4.3}
{"target": "T1, Urease", "test": "Non-competitive inhibition of jack bean urease assessed as dissociation constant measured upto 10 mins by Lineweaver-Burk plot analysis", "conditions": "not given", "units": {"Ki": "µM"}}
{"molecule": "CCCCCCCCCCCCCC(=O)NC(=S)Nc1cccc(Cl)c1", "Ki": 0.021}
{"system": "not listed separately", "test": "(§1) Inhibition of urease (unknown origin)", "conditions": "not given", "units": {"IC50": "µg/mL"}}
{"molecule": "O=c1c2ccccc2nc(Cc2ccccc2)n1Cc1nnc(Nc2ccc([N+](=O)[O-])cc2)s1", "IC50": 3.3}
{"molecule": "CCc1nc2ccccc2c(=O)n1CC(=O)NNC(=O)c1cc2cc(Br)ccc2oc1=O", "IC50": 1.26}
{"system": "not listed separately", "test": "as §1", "conditions": "read-out: IC50", "units": {"IC50": "µM"}}
{"molecule": "O=C(N/N=C/c1c(O)ccc2c(=O)cc(-c3ccc(F)cc3)oc12)c1ccccc1", "IC50": 1.21}
{"molecule": "O=C(CC(O)c1cc(Cl)ccc1OCc1ccccc1)NO", "note": "(configuration not stated)", "IC50": 0.15}
{"molecule": "O=C1Nc2ccc(Cl)cc2/C1=C\\c1ccc(C(=O)N/N=C/c2c(O)cc(O)cc2O)cc1", "IC50": 13}
{"molecule": "O=[N+]([O-])c1ccc(S(=O)(=O)N/N=C(\\c2ccccc2)c2ccc(O)cc2)cc1", "IC50": 3.9}
{"molecule": "Nc1cccc(C(c2c(O)c3ccccc3oc2=O)c2c(O)c3ccccc3oc2=O)c1", "IC50": 74.3}
{"molecule": "O=[N+]([O-])c1ccc(S(=O)(=O)Nc2nnc(-c3ccc(C(c4c[nH]c5ccc(Br)cc45)c4c[nH]c5ccc(Br)cc45)cc3)s2)c([N+](=O)[O-])c1", "IC50": 0.5}
{"molecule": "O=C1NC(=S)NC(=O)C1=CNc1cc([N+](=O)[O-])ccc1C(=O)O", "IC50": 8.53}
{"molecule": "COc1ccc(/C=C/C(=O)c2ccc(O)cc2)cc1", "IC50": 11.5}
{"molecule": "COc1ccc(-c2nc(C(=O)NC3CCCCC3)cs2)cc1", "IC50": 1.82}
{"molecule": "CC(C)=CCN1C(=O)/C(=N/Nc2ccccc2)c2ccccc21", "IC50": 0.71}
{"molecule": "CC(=O)NO", "note": "[ACETOHYDROXAMIC ACID]", "IC50": 29.2}
{"molecule": "COc1ccc(C(=O)NNC(=O)c2cc(Cl)cc(Cl)c2)cc1", "IC50": 0.87}
{"molecule": "Cc1ccc(/C=N/Nc2nc(-c3ccc(Br)cc3)cs2)cc1", "IC50": 0.11}
{"system": "not listed separately", "test": "Inhibition of urease (unknown origin) assessed as reduction on ammonia production using urea as substrate incubated for 15 mins by indophenol reagent based microplate reader assay", "conditions": "not given", "units": {"IC50": "µM"}}
{"molecule": "O=C(NNC(=S)Nc1ccc([N+](=O)[O-])cc1)c1ccc(-c2nc3ccccc3s2)cc1", "IC50": 1.4}
{"target": "T1, Urease", "test": "Inhibition of jack bean urease assessed as reduction on ammonia production using urea as substrate preincubated for 15 mins followed by substrate addition and measured after 15 mins by indophenol method", "conditions": "not given", "units": {"IC50": "µM"}}
{"molecule": "CC(C)NCC(O)COc1ccc(CC(N)=O)cc1", "note": "(configuration not stated) [ATENOLOL]", "IC50": 64.4}
{"target": "T1, Urease", "test": "Inhibition of jack bean urease assessed as reduction on ammonia production using urea as substrate incubated for 30 mins by indophenol reagent based UV-vis spectrophotometer", "conditions": "not given", "units": {"IC50": "µM"}}
{"molecule": "Cc1nc2cc(Cl)c(Cl)cc2n1CC(=O)NNC(=S)Nc1ccc([N+](=O)[O-])cc1", "IC50": 0.0354}
{"molecule": "S=P(Nc1ccc(CCc2ccc(NP(=S)(c3ccccc3)c3ccccc3)cc2)cc1)(c1ccccc1)c1ccccc1", "IC50": 0.00191}
{"molecule": "Cc1nc2cc(Cl)c(Cl)cc2n1Cc1nnc(S)n1-c1ccc([N+](=O)[O-])cc1", "IC50": 0.0294}
